Earlier results, collected in patent publication US20150099751A1, “IN SITU GEL LOADED WITH PHOSPHODIESTERASE TYPE V INHIBITORS NANOEMULSION” (KING ABDULAZIZ UNIVERSITY, priority 2013, published 2015).

How the values were obtained:
[1] = system: male lower urinary tract syndrome (LUTS); settings: after 12 weeks of treatment
[2] = system: isolated human corpus cavernosum; settings: at the recommended doses
[3] = administration by mouth (orally)

CCCc1nn(C)c2c(=O)[nH]c(-c3cc(S(=O)(=O)N4CCN(C)CC4)ccc3OCC)nc12 [Sildenafil, 1[4ethoxy3(6.7dihydro1methyl7oxo3propyl1Hpyrazolo [4,3d]pyrimidin5yl)phenylsulfonyl]4methylpiperazine]
International Prostate Symptom Score (IPSS) and LUTS-specific quality of life (QoL) score [1]: overall improvement
direct relaxant effect on the isolated human corpus cavernosum [2]: no direct relaxant effect
bioavailability [3]: approximately 40%
